Laboratory results reported in patent EP0736009B1, “N-OXIDES OF 4-ARYLPIPERAZINES AND 4-ARYLPIPERIDINES AS ANTIPSYCHOTIC DRUGS” (ORTHO PHARMACEUTICAL CORPORATION, priority 1993, dated 1995).

Columns and labels:
[1] = test system: Rat; assay: Block of Conditioned Avoidance Responding (Rat) test (CAR); format: in vivo, Male, Fischer 344 rats; conditions: for Loss of escape: % failures to escape (group mean), measure of general sedative potential, at CAR 15 mg/kg ip; for % CAR at 15 mg/kg: mean % change in CAR vs vehicle pretreatment day, 15 mg/kg ip, negative number = blockade of CAR
Source text: The antipsychotic activity of the compounds of the invention may be determined by the Block of Conditioned Avoidance Responding (Rat) test (CAR), references being Cook, L. and E. Weidley in Ann. N.Y. Acad. Sci., 1957, 6, 740-752, and Davidson, A.B. and E. Weidley in Life Sci., 1976, 18, 1279-1284. A reading of -20% in the CAR test was generally taken to represent a minimum value for a compound to be designated as active at a given dose. In addition, the affinity of the compounds for several receptors found in the central nervous system was evaluated; the affinity for the D-2 (dopamine-2) receptors is also listed in Table 1. As modulation of this receptor is generally recognized to be beneficial in the treatment of schizophrenia (G. P. Reynolds Trends Pharmacol. Sci. 1992, 13, 116), affinity for this receptor indicates potential utility for the compounds. […] Block of Conditioned Avoidance Responding (Rat) Apparatus: Rat operant chambers, housed within sound attenuated booths, both from […] Instruments Ltd., were used in this test. The test chamber (8" H x […] D) is constructed of aluminum and plexiglass with floor grid bars of stainless-steel (1/8" O.D.) spaced 9/16" apart. A stainless-steel operation level 1-1/2" wide projects 3/4" into the chamber and is positioned 2-2/8" above the grid floor. The shock stimulus is delivered via the grid floor by a Coulbourn Instruments solid state module. The parameters of the test and the collection of data are controlled automatically. Training: Male, Fischer 344 rats obtained from Charles River (Kingston, NY) weighing more than 200 g, are individually housed with chow and water provided ad libitum. The rats are trained for two weeks to approach criterion levels in the avoidance test (90% avoidance rate). One-hour training sessions are run at about the same time each day for four or five days a week. The training session consists of 120 trials, with the conditioned stimuli presented every 30 sec. A trial begins with presentation of the conditioned stimuli (a light and a tone). If the rat responds by depressing the operant lever during the 15-second presentation of the conditioned stimuli, the trial is terminated and the animal is credited with a CAR. Failure to respond during the conditioned stimuli causes the presentation of the unconditioned stimulus (UCS), a 0.7 mA shock which is accompanied by a light and tone for five seconds. If the rat depressed the lever within the ten-second period, the shock and trial are terminated and an escape response recorded. If the rat fails to depress the lever during the UCS (shock), the trial is terminated after ten seconds of shock and the absence of a response is scored as a failure to escape. […] presses have no effect. If a rat performs at the 90% CAR level for two weeks, it is then run twice a week on the test schedule (see below) until baseline performance stabilized. Before any drug is administered, two weeks of CAR at a rate of 90% or better is required. The percent change in CAR on the drug treatment day compared to vehicle pretreatment day is the key measure. The percent change (% change) in CAR is determined using the following formula: % change CAR = ((% CAR for Day 2/% CAR for Day 1) x 100)-100 [formula] A negative number indicates a blockade of CAR, whereas a positive number would indicate increased CAR. The test results are reported as the mean % change for the group of rats. Failure to escape, a measure of the general sedative potential of the compound, was calculated for each animal as follows: % Failures = # of Failures to Escape/# of trials [formula] The % failures, viz., loss of escape, is also reported as a group mean. Failures to escape are monitored closely and a session is terminated if ten failures occurred. ED50 values and 95% confidence limits are calculated using linear regression analysis. […]

[2] = molecular target: T1, D-2 (dopamine-2) receptors (Rattus norvegicus, UniProt P61169); assay: Dopamine D2 receptor binding assay (3H-spiperone, striatal P2 fraction); design: species or system male, Wistar rats; conditions: rat striatum P2 fraction; 3H-spiperone 0.05 nM; 45 min at 37°C
T1 construct: The D2 assay employed a P2 fraction from the striatum; from tissue; host or cells: rat striatum, P2 fraction (synaptosomal membranes)
Source text: The antipsychotic activity of the compounds of the invention may be determined by the Block of Conditioned Avoidance Responding (Rat) test (CAR), references being Cook, L. and E. Weidley in Ann. N.Y. Acad. Sci., 1957, 6, 740-752, and Davidson, A.B. and E. Weidley in Life Sci., 1976, 18, 1279-1284. A reading of -20% in the CAR test was generally taken to represent a minimum value for a compound to be designated as active at a given dose. In addition, the affinity of the compounds for several receptors found in the central nervous system was evaluated; the affinity for the D-2 (dopamine-2) receptors is also listed in Table 1. As modulation of this receptor is generally recognized to be beneficial in the treatment of schizophrenia (G. P. Reynolds Trends Pharmacol. Sci. 1992, 13, 116), affinity for this receptor indicates potential utility for the compounds. […].
The dopamine D2 binding activity of compounds was determined using a P2 fraction (synaptosomal membranes) prepared from male, Wistar rats. The D2 assay employed a P2 fraction from the striatum, the ligand ^3H-spiperone at a concentration of 0.05 nM, and 1 mM haloperidol as a blank determinant. […].
The data from this assay were analyzed by calculating the percent inhibition of the binding of the tritiated ligands by given concentrations of the test compound. KI values, where given, were obtained from the logit analysis of concentration-inhibition curves.

T1 sequence (P61169 whole entry): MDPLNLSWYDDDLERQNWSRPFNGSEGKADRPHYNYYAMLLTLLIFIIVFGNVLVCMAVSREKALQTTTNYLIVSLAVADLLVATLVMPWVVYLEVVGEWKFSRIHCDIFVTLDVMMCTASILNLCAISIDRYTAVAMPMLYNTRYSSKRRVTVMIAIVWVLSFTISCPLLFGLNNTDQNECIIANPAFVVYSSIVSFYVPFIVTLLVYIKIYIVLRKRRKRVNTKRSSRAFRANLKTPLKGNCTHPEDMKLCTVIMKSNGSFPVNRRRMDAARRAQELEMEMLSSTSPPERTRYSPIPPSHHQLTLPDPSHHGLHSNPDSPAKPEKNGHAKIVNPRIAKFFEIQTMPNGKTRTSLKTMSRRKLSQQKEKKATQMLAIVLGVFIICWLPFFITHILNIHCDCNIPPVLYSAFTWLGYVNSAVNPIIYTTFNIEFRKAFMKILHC

Ki [2]	SMILES	Loss of escape [1]	% CAR at 15 mg/kg [1]
371 nM	CC(C)Oc1ccccc1C1CC[N+]([O-])(Cc2cccc(C(=O)N3[C@H](C)CCC[C@@H]3C)c2)CC1 (relative stereo) [Compound 3, 1-[3-[[4-[2-(1-Methylethoxy)phenyl]-1-piperidinyl-1-oxide]methyl]benzoyl]-cis-2.6-dimethylpiperidine]	0.4%	-37.7%
140 nM	CC(C)Oc1ccccc1[N+]1([O-])CCN(Cc2cccc(C(=O)N3CCCCC3)c2)CC1 [Compound 1, 1-[3-[[4-[2-(1-Methylethoxy)ehenyl]-4-oxide-1-piperazinyl]methyl]benzoyl]piperidine]	44.8%	-91.7%
355 nM	CC(C)Oc1ccccc1N1CC[N+]([O-])(Cc2cccc(C(=O)N3CCCCC3)c2)CC1 [Compound 2, 1-[3-[[4-[2-(1-Methylethoxy)phenyl]-1-piperazinyl-1-oxide]methyl]benzoyl]piperidine]	31.5%	-87.6%
